{"source": "patent US9790178B2", "about": "“Pyrrolidinyl urea, thiourea, guanidine and cyanoguanidine compounds as TrkA kinase inhibitors” (Array BioPharma Inc., priority 2012, dated 2017)", "key": {"[1]": {"biological_target": "T1, His-tagged recombinant human TrkA (Homo sapiens, UniProt P04629)", "T1 construct": "6HIS tagged cytoplasmic domain from Invitrogen, Catalog No. PV3144; purchased Invitrogen PV3144", "experiment": "TrkA LanthaScreen Eu Kinase Binding Assay", "conditions": "averaged IC50 values; read-out: TrkA enzyme IC50", "protocol": "TrkA binding activity was determined in a TrkA LanthaScreen™ Eu Kinase Binding Assay. 5 nM His-tagged recombinant human TrkA (6HIS tagged cytoplasmic domain from Invitrogen, Catalog No. PV3144) was incubated with 4 nM Alexa-Fluor® Tracer 236 (Invitrogen Cat. No. PV5592), 2 nM biotinylated anti-His (Invitrogen Cat. No. PV6090), and 2 nM europium-labeled Streptavidin (Invitrogen Cat. No. PV5899), in buffer (25 mM MOPS, pH 7.5, 5 mM MgCl2, 0.005% Triton X-100). Three fold serial dilutions of compounds of the invention in DMSO were added to a final percentage of 2% DMSO. After 60-minute incubation at 22° C., the reaction was measured using the EnVision mutlimode plate reader (PerkinElmer) via TR-FRET dual wavelength detection at […]. The percent of control was calculated using a ratiometric emission factor. The IC50 values were determined by fitting a four parameter model to the percent of control data.\nTable A provides averaged IC50 values for compounds of the invention when tested in the assay of Example A, where A represents an averaged IC50 value <100 nM; and B represents an averaged IC50 value from 100 to 1,000 nM."}, "[2]": {"test_system": "off-target kinases (panel of about 230 other kinases)", "experiment": "KinaseProfiler full kinase panel, overall selectivity", "format": "biochemical", "conditions": "10 μM concentration", "protocol": "A representative compound of the invention (Example 20) was tested for off-target kinase activity at a concentration of 10 μM by Millipore, Inc. in their KinaseProfiler™ service against all the kinases available in their full kinase panel. The compound was run in duplicate at a concentration of ATP near the Km for each individual kinase according to Millipore's specifications. The results are shown in Table B. Data are reported as percent of control (POC) and are the average of the two replicates.\nSuch a drug profile would represent a safer approach to treating pain, inflammation, cancer and certain skin diseases than has been previously reported."}, "PKCdelta": {"biological_target": "T2, PKCdelta (Homo sapiens, UniProt Q05655)", "T2 construct": "purchased Millipore, Inc. (KinaseProfiler service)", "experiment": "KinaseProfiler off-target kinase profiling", "format": "biochemical", "conditions": "10 μM, ATP near Km", "outline": "(§1)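 Each kinase in the full panel was exposed to the compound at 10 μM under ATP conditions approximating that enzyme's Km. Two replicates were run, and their mean activity versus control is what is reported.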"}, "KDR": {"biological_target": "T3, KDR (Homo sapiens, UniProt P35968)", "T3 construct": "purchased Millipore, Inc. (KinaseProfiler service)", "experiment": "KinaseProfiler off-target kinase profiling", "format": "biochemical", "conditions": "10 μM, ATP near Km", "outline": "as §1"}, "DRAK1": {"biological_target": "T4, DRAK1 (Homo sapiens, UniProt Q9UEE5)", "T4 construct": "purchased Millipore, Inc. (KinaseProfiler service)", "experiment": "KinaseProfiler off-target kinase profiling", "format": "biochemical", "conditions": "10 μM, ATP near Km", "outline": "as §1"}, "MAPKAP-K5": {"biological_target": "T5, MAPKAP-K5 (Homo sapiens, UniProt Q8IW41)", "T5 construct": "purchased Millipore, Inc. (KinaseProfiler service)", "experiment": "KinaseProfiler off-target kinase profiling", "format": "biochemical", "conditions": "10 μM, ATP near Km", "outline": "as §1"}, "IGF-1R": {"biological_target": "T6, IGF-1R (Homo sapiens, UniProt P08069)", "T6 construct": "purchased Millipore, Inc. (KinaseProfiler service)", "T6 sequence (P08069 31-1367)": "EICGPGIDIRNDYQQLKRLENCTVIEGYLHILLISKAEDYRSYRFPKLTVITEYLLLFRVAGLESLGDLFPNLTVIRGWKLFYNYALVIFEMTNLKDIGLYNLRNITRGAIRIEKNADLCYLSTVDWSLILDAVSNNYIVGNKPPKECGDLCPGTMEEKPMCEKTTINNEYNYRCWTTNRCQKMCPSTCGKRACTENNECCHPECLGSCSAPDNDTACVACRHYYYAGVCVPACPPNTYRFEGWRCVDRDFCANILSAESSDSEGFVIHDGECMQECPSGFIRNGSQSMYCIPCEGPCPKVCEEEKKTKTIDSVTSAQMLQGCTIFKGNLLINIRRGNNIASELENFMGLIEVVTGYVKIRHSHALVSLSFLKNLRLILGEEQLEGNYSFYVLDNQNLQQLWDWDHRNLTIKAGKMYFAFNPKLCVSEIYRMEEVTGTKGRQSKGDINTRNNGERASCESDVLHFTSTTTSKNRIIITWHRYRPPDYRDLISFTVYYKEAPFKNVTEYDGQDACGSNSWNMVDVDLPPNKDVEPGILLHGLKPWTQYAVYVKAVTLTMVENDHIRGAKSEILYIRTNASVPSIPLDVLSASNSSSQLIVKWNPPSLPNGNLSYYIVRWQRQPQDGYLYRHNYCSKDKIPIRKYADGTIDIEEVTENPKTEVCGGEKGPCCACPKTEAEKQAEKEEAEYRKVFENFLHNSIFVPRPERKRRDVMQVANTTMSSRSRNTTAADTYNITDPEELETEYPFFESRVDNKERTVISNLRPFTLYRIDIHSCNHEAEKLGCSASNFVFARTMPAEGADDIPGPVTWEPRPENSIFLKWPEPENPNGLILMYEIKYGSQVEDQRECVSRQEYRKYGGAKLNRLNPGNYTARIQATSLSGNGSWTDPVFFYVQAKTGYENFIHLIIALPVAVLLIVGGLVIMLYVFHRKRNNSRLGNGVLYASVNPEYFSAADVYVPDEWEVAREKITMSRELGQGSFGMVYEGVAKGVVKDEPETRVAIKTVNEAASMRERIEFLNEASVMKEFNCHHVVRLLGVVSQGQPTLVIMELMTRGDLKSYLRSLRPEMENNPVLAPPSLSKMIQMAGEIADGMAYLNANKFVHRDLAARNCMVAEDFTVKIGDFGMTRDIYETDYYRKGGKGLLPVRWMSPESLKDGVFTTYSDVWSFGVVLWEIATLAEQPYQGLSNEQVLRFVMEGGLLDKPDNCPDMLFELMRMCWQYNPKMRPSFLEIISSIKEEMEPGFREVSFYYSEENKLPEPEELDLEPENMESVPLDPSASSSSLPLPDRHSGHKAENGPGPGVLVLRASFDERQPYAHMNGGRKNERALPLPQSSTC", "experiment": "KinaseProfiler off-target kinase profiling", "format": "biochemical", "conditions": "10 μM, ATP near Km", "outline": "as §1"}, "MRCKalpha": {"biological_target": "T7, MRCKalpha (Homo sapiens, UniProt Q5VT25)", "T7 construct": "purchased Millipore, Inc. (KinaseProfiler service)", "experiment": "KinaseProfiler off-target kinase profiling", "format": "biochemical", "conditions": "10 μM, ATP near Km", "outline": "as §1"}, "Flt4": {"biological_target": "T8, Flt4 (Homo sapiens, UniProt P35916)", "T8 construct": "purchased Millipore, Inc. (KinaseProfiler service)", "T8 sequence (P35916 25-1363)": "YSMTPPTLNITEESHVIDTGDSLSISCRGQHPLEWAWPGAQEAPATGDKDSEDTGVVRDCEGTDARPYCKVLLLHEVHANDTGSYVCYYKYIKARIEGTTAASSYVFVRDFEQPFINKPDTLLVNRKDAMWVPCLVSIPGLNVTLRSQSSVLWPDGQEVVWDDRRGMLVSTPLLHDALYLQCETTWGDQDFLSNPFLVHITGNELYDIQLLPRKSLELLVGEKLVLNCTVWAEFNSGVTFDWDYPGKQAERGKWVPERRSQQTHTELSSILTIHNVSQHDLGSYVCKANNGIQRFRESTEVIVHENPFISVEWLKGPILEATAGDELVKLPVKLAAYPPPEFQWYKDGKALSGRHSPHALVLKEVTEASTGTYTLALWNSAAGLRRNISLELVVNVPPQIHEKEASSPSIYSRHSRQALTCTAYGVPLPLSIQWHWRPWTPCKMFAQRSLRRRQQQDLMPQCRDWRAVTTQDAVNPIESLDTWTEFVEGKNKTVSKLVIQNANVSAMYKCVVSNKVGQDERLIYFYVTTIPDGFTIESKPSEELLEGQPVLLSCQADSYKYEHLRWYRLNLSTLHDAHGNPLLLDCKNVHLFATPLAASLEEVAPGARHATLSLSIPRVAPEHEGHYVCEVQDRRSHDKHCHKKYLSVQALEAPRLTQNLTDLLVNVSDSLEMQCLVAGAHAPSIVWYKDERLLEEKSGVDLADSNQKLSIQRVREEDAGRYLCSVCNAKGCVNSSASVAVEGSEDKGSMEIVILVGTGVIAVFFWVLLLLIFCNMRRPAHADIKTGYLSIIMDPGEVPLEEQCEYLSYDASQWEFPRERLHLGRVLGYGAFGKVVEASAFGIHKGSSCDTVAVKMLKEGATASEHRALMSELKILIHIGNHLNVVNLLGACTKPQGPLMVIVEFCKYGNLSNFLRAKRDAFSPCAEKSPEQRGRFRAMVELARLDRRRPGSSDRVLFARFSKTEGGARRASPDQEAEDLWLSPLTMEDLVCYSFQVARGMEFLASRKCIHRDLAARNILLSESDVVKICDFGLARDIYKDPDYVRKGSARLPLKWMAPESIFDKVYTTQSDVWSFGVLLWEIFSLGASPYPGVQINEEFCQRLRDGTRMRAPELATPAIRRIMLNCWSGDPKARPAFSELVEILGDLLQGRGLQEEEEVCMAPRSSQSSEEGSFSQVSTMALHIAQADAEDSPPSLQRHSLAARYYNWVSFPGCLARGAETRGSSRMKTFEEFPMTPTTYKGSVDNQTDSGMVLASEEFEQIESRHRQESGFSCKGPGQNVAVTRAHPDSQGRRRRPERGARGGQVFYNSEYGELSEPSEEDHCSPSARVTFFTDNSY", "experiment": "KinaseProfiler off-target kinase profiling", "format": "biochemical", "conditions": "10 μM, ATP near Km", "outline": "as §1"}, "CDK3/cyclinE": {"biological_target": "T9, CDK3/cyclinE (Homo sapiens, UniProt Q00526)", "T9 construct": "purchased Millipore, Inc. (KinaseProfiler service)", "experiment": "KinaseProfiler off-target kinase profiling", "format": "biochemical", "conditions": "10 μM, ATP near Km", "outline": "as §1"}, "TAK1": {"biological_target": "T10, TAK1 (Homo sapiens, UniProt O43318)", "T10 construct": "purchased Millipore, Inc. (KinaseProfiler service)", "experiment": "KinaseProfiler off-target kinase profiling", "format": "biochemical", "conditions": "10 μM, ATP near Km", "outline": "as §1"}, "PhKgamma2": {"biological_target": "T11, PhKgamma2 (Homo sapiens, UniProt P15735)", "T11 construct": "purchased Millipore, Inc. (KinaseProfiler service)", "T11 sequence (P15735 whole entry)": "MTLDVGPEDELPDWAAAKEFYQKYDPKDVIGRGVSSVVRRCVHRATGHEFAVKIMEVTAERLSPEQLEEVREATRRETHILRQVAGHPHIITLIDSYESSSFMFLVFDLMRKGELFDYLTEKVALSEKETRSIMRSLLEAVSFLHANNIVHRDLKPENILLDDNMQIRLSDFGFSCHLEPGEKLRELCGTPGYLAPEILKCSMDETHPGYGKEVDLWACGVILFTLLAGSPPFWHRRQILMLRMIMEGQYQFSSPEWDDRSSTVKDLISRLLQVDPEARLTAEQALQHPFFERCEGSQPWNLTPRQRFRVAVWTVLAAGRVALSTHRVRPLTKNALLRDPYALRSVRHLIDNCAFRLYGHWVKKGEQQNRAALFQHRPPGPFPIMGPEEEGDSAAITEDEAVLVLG", "experiment": "KinaseProfiler off-target kinase profiling", "format": "biochemical", "conditions": "10 μM, ATP near Km", "outline": "as §1"}, "WNK3": {"biological_target": "T12, WNK3 (Homo sapiens, UniProt Q9BYP7)", "T12 construct": "purchased Millipore, Inc. (KinaseProfiler service)", "experiment": "KinaseProfiler off-target kinase profiling", "format": "biochemical", "conditions": "10 μM, ATP near Km", "outline": "as §1"}, "JNK1alpha1": {"biological_target": "T13, JNK1alpha1 (Homo sapiens, UniProt P45983)", "T13 construct": "purchased Millipore, Inc. (KinaseProfiler service)", "T13 sequence (P45983 1-384 isoform P45983-2)": "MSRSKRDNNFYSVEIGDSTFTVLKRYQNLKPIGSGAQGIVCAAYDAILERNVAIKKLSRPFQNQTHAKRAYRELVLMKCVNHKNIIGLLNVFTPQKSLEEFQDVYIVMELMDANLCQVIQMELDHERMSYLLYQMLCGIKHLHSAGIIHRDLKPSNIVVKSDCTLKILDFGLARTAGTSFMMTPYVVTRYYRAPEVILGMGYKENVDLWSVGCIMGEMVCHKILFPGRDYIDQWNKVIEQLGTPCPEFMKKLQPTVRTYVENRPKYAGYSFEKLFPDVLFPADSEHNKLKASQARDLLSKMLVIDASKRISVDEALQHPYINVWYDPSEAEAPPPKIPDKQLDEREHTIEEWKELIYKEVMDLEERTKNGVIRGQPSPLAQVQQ", "experiment": "KinaseProfiler off-target kinase profiling", "format": "biochemical", "conditions": "10 μM, ATP near Km", "outline": "as §1"}, "TBK1": {"biological_target": "T14, TBK1 (Homo sapiens, UniProt Q9UHD2)", "T14 construct": "purchased Millipore, Inc. (KinaseProfiler service)", "experiment": "KinaseProfiler off-target kinase profiling", "format": "biochemical", "conditions": "10 μM, ATP near Km", "outline": "as §1"}, "ALK4": {"biological_target": "T15, ALK4 (Homo sapiens, UniProt P36896)", "T15 construct": "purchased Millipore, Inc. (KinaseProfiler service)", "experiment": "KinaseProfiler off-target kinase profiling", "format": "biochemical", "conditions": "10 μM, ATP near Km", "outline": "as §1"}, "EphB3": {"biological_target": "T16, EphB3 (Homo sapiens, UniProt P54753)", "T16 construct": "purchased Millipore, Inc. (KinaseProfiler service)", "experiment": "KinaseProfiler off-target kinase profiling", "format": "biochemical", "conditions": "10 μM, ATP near Km", "outline": "as §1"}, "CHK2": {"biological_target": "T17, CHK2 (Homo sapiens, UniProt O96017)", "T17 construct": "purchased Millipore, Inc. (KinaseProfiler service)", "T17 sequence (O96017 whole entry)": "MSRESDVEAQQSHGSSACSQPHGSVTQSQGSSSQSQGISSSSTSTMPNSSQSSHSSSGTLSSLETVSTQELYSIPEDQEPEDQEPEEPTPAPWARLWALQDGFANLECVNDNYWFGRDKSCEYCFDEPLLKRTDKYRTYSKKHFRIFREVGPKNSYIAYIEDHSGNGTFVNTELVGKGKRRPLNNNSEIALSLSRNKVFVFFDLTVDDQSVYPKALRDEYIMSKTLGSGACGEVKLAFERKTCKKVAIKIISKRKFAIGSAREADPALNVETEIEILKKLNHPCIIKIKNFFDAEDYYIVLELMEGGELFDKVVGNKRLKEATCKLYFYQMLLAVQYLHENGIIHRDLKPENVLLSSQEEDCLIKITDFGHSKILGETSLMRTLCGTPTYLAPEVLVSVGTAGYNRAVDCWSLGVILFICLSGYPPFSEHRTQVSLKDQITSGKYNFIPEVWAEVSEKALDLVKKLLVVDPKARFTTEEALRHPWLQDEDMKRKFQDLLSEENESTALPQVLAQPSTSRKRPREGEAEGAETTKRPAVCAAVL", "experiment": "KinaseProfiler off-target kinase profiling", "format": "biochemical", "conditions": "10 μM, ATP near Km", "outline": "as §1"}, "Rse": {"biological_target": "T18, Rse (Homo sapiens, UniProt Q06418)", "T18 construct": "purchased Millipore (KinaseProfiler service)", "T18 sequence (Q06418 41-890)": "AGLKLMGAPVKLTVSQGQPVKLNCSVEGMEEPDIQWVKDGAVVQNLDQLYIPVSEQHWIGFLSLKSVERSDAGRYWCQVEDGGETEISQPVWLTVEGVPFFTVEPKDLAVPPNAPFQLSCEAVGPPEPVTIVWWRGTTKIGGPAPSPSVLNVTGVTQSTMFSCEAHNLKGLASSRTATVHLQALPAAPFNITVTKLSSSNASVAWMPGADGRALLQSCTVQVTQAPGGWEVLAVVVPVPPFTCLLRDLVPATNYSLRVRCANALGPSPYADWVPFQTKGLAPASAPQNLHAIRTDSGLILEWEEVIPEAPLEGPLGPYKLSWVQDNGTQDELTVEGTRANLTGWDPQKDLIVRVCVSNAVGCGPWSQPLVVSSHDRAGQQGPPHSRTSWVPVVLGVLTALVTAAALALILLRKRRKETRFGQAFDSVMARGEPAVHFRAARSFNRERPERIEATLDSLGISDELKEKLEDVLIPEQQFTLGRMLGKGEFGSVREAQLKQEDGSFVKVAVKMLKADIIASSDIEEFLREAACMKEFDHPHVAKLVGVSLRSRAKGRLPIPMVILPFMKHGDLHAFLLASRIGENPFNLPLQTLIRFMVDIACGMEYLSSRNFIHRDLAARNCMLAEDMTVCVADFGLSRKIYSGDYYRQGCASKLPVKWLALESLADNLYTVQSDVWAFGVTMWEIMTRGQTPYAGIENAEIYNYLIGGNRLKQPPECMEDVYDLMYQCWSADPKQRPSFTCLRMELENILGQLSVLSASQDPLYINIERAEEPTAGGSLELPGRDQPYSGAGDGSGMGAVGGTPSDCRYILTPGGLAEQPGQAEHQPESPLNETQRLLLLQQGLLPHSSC", "experiment": "KinaseProfiler off-target kinase profiling", "format": "biochemical", "conditions": "10 μM, ATP near Km", "outline": "as §1"}, "IKKalpha": {"biological_target": "T19, IKKalpha (Homo sapiens, UniProt O15111)", "T19 construct": "purchased Millipore, Inc. (KinaseProfiler service)", "experiment": "KinaseProfiler off-target kinase profiling", "format": "biochemical", "conditions": "10 μM, ATP near Km", "outline": "as §1"}, "Pim-2": {"biological_target": "T20, Pim-2 (Homo sapiens, UniProt Q9P1W9)", "T20 construct": "purchased Millipore, Inc. (KinaseProfiler service)", "experiment": "KinaseProfiler off-target kinase profiling", "format": "biochemical", "conditions": "10 μM, ATP near Km", "outline": "as §1"}, "ErbB4": {"biological_target": "T21, ErbB4 (Homo sapiens, UniProt Q15303)", "T21 construct": "purchased Millipore, Inc. (KinaseProfiler service)", "experiment": "KinaseProfiler off-target kinase profiling", "format": "biochemical", "conditions": "10 μM, ATP near Km", "outline": "as §1"}, "MAP4K2": {"biological_target": "T22, MAP4K2 (Homo sapiens, UniProt Q12851)", "T22 construct": "purchased Millipore, Inc. (KinaseProfiler service)", "experiment": "KinaseProfiler off-target kinase profiling", "format": "biochemical", "conditions": "10 μM, ATP near Km", "outline": "as §1"}, "MEK1": {"biological_target": "T23, MEK1 (Homo sapiens, UniProt Q02750)", "T23 construct": "purchased Millipore, Inc. (KinaseProfiler service)", "experiment": "KinaseProfiler off-target kinase profiling", "format": "biochemical", "conditions": "10 μM, ATP near Km", "outline": "as §1"}, "Yes": {"biological_target": "T24, Yes (Homo sapiens, UniProt P07947)", "T24 construct": "purchased Millipore, Inc. (KinaseProfiler service)", "experiment": "KinaseProfiler off-target kinase profiling", "format": "biochemical", "conditions": "10 μM, ATP near Km", "outline": "as §1"}, "PDGFRbeta": {"biological_target": "T25, PDGFRbeta (Homo sapiens, UniProt P09619)", "T25 construct": "purchased Millipore, Inc. (KinaseProfiler service)", "experiment": "KinaseProfiler off-target kinase profiling", "format": "biochemical", "conditions": "10 μM, ATP near Km", "outline": "as §1"}, "EphB1": {"biological_target": "T26, EphB1 (Homo sapiens, UniProt P54762)", "T26 construct": "purchased Millipore, Inc. (KinaseProfiler service)", "experiment": "KinaseProfiler off-target kinase profiling", "format": "biochemical", "conditions": "10 μM, ATP near Km", "outline": "as §1"}}}
{"smiles": "COCCN1C[C@@H](NC(=O)Nc2c(-c3ccccc3)nc3c(C)nccn23)[C@H](c2ccc(F)c(F)c2)C1", "note": "[Example 20, 1-((3S,4R)-4-(3,4-difluorophenyl)-1-(2-methoxyethyl)pyrrolidin-3-yl)-3-(8-methyl-2-phenylimidazo[1,2-a]pyrazin-3-yl)urea]", "values": [{"measurement": "IC50", "setting": "[1]", "value": "< 100", "unit": "nM"}, {"measurement": "selectivity for TrkA (and TrkB) versus other kinases in the panel", "setting": "[2]", "value": "largely inactive against off-target kinases"}, {"measurement": "Avg. POC", "setting": "PKCdelta", "value": 106.5, "unit": "POC"}, {"measurement": "Avg. POC", "setting": "KDR", "value": 107, "unit": "POC"}, {"measurement": "Avg. POC", "setting": "DRAK1", "value": 107, "unit": "POC"}, {"measurement": "Avg. POC", "setting": "MAPKAP-K5", "value": 88.5, "unit": "POC"}, {"measurement": "Avg. POC", "setting": "IGF-1R", "value": 73, "unit": "POC"}, {"measurement": "Avg. POC", "setting": "MRCKalpha", "value": 101.5, "unit": "POC"}, {"measurement": "Avg. POC", "setting": "Flt4", "value": 110.5, "unit": "POC"}, {"measurement": "Avg. POC", "setting": "CDK3/cyclinE", "value": 111, "unit": "POC"}, {"measurement": "Avg. POC", "setting": "TAK1", "value": 97, "unit": "POC"}, {"measurement": "Avg. POC", "setting": "PhKgamma2", "value": 98.5, "unit": "POC"}, {"measurement": "Avg. POC", "setting": "WNK3", "value": 115.5, "unit": "POC"}, {"measurement": "Avg. POC", "setting": "JNK1alpha1", "value": 105, "unit": "POC"}, {"measurement": "Avg. POC", "setting": "TBK1", "value": 114, "unit": "POC"}, {"measurement": "Avg. POC", "setting": "ALK4", "value": 98.5, "unit": "POC"}, {"measurement": "Avg. POC", "setting": "EphB3", "value": 107, "unit": "POC"}, {"measurement": "Avg. POC", "setting": "CHK2", "value": 138, "unit": "POC"}, {"measurement": "Avg. POC", "setting": "Rse", "value": 102.5, "unit": "POC"}, {"measurement": "Avg. POC", "setting": "IKKalpha", "value": 121, "unit": "POC"}, {"measurement": "Avg. POC", "setting": "Pim-2", "value": 122.5, "unit": "POC"}, {"measurement": "Avg. POC", "setting": "ErbB4", "value": 97.5, "unit": "POC"}, {"measurement": "Avg. POC", "setting": "MAP4K2", "value": 112, "unit": "POC"}, {"measurement": "Avg. POC", "setting": "MEK1", "value": 111, "unit": "POC"}, {"measurement": "Avg. POC", "setting": "Yes", "value": 109, "unit": "POC"}, {"measurement": "Avg. POC", "setting": "PDGFRbeta", "value": 114, "unit": "POC"}, {"measurement": "Avg. POC", "setting": "EphB1", "value": 85, "unit": "POC"}]}
